This is an account of results in patent US12252472B1, “Barbituric acid derivatives, their preparation and use thereof as leukocyte transmigration inhibitors and for treating inflammatory diseases, autoimmune diseases and cancer” (BAR-ILAN UNIVERSITY, priority 2017, dated 2025).

pIC50: −log10 of the molar value.

Assay [1] has as its system primary human monocytes on TNF-alpha-activated HUVECs. Nature of the assay: Shear flow assay: monocyte adhesion and transmigration on TNFα-activated HUVECs. Format: cell-based. The note with it: for Level of Transmigration Blockage (%) / Monocyte adhesion / inhibition at 30 µM: 30 μM; for Level of Transmigration Blockage (%): monocytes on TNF-activated HUVECs under flow 0.05 Pa; for Monocyte adhesion: flow 0.05 Pa for 30 minutes; for inhibition at 30 µM: Table 2, read-out: monocyte-rolling inhibition. The source says:
A flow assay that allows detailed analysis of individual leukocyte interactions with endothelial cells (ECs), described in Bradfield et al. (Bradfield et al., 2016, PloS One, July 21; 11(7); Bradfield et al., 2007, Blood. October 1; 110(7):2545-55) was used for evaluation of the biological effects of the compounds according to the invention. This method allows the determination of the possible effects of the compounds on three major phases in leukocyte migration: the capture of free non-bound leukocytes by endothelium, migration of leukocytes on the endothelium surface, and transendothelial migration (transmigration) of human leukocytes through the HUVECs layer. Post transmigrational events can also be monitored by tracking individual leukocytes. […] Human umbilical vein endothelial cells (HUVECs) were cultivated in the plastic channel of the flow chamber, and human leukocyte were flowed over them using a calibrated pump, allowing monocyte capture, adhesion and migration to be monitored.
Human umbilical vein endothelial cells (HUVEC) were isolated by collagenase treatment of umbilical veins as previously described (Wall, R. T., et al., Factors influencing endothelial cell proliferation in vitro. J Cell Physiol, 1978. 96(2): p. 203-13) and maintained in M199 containing 20% fetal calf serum (FCS), 15 μg/mL endothelial cell growth supplement (Upstate Biotechnology, Lake Placid, NY), 100 μg/mL heparin, 50 μM hydrocortisone, and 10 μg/mL vitamin C. Cells were cultured up to a maximum of passage 5.
Peripheral blood mononuclear cells (PBMCs) were first isolated from blood of healthy donors followed by monocyte purification using a monocyte isolation kit (Miltenyi Biotec, Bergisch Gladbach, Germany). Purity and activity of monocytes were controlled by flow cytometry by labelling with anti-CD14 and anti-CD62L. Only populations of 90% or more double positive cells were used.
(§1) Flow assays were conducted as described in a previous study (Bradfield, P. F., et al., JAM-C regulates unidirectional monocyte transendothelial migration in inflammation. Blood, 2007. 110(7): p. 2545-55). HUVECs were cultured at 1×10^5 cells/slide on Ibidi 6-chamber slides (80606; Ibidi) before treatment with TNFα (500 U/mL) for 6-10 hours. An individual chamber outlet was then attached to a calibrated pump (74 900; Cole Partner, Vernon Hills, IL) and flow was generated by perfusing wash buffer (M199 with 0.15% BSA) or a monocyte suspension (2.5×10^6 cells/mL) over the HUVEC monolayer. The flow rate was representative of shear rates in small venules (0.05 Pa). Observations made using phase-contrast microscopy (Model: Axiovert 100; Objective: 20×/0.3 NA air; Carl Zeiss) were recorded using a high-resolution camera (D70; Nikon, Zurich, Switzerland). Individual images were recorded every 30 seconds with Nikon capture software (v4.2) and compiled into movie sequences using Adobe Photoshop (CS6) and Image J (v1.5d), allowing analysis of individual monocytes over large areas. The tested compounds, e.g. compounds of the general Formula (I), were maintained at the specified concentration in all wash buffers throughout the course of the experiment. The compounds were preincubated separately on both HUVECs and monocytes 15 minutes prior to flow co-culture. HUVEC monolayers were washed for 10 minutes prior to a compound wash-in step to allow for this preincubation period. The monocyte suspension was then perfused over HUVECs for 4 minutes followed by 20 to 60 minutes with wash buffer. Time-lapse recording was started upon monocyte first-contact with the monolayer. Monocyte adhesion data are presented as the total number of monocytes per unit field. Transmigration events are presented as a percentage of total monocytes captured from flow per unit field. All experiments were carried out using quadruplicate fields and are presented as a mean value (±SEM).
A timeline is shown to represent the positioning and timing of an individual monocyte during movie analysis (marked ‘Timeline’). […]

The test system of a further assay is B cells. Nature of the assay: B-lymphocyte adhesion and transmigration, MesenFlow assay. As to conditions: 30 μg/ml. It is filed as cell-based. As to the method: as §1, with “HUVEC monolayers were washed for 10 minutes prior to a compound wash-in step to allow for this preincubation period. The monocyte suspension was then perfused over HUVECs for 4 minutes followed by 20 to 60 minutes with wash buffer. Time-lapse recording was started upon monocyte first-contact with the monolayer. Monocyte adhesion data are presented as the total number of monocytes per unit field. Transmigration events are presented as a percentage of total monocytes captured from flow per unit field. All experiments were carried out using quadruplicate fields and are presented as a mean value (±SEM).” left out

For `COC(=O)c1ccc(COc2cccc(C=C3C(=O)NC(=O)NC3=O)c2)cc1` [Formula 1, Methyl 4-((3-((2,4,6-trioxo-tetrahydropyrimidin-5(2H)-ylidene)methyl)phenoxy)methyl) benzoate], the “Level of Transmigration Blockage (%)” value in assay [1] turned out to be 81%.
In the case of `COC(=O)c1ccc(COc2c(C)cc(C=C3C(=O)NC(=O)NC3=O)cc2C)cc1` [Formula 4, Methyl 4-((2,6-dimethyl-4-((2,4,6-trioxotetrahydro-pyrimidin-5(2H)ylidene)methyl)phenoxy)methyl) benzoate], in assay [1], the “Level of Transmigration Blockage (%)” value came out at 75%.
Still for that read-out and setting: with `O=C1NC(=O)C(=Cc2ccccc2OCc2cccc(C(=O)O)c2)C(=O)N1` [Formula 6, 3-((2-((2,4,6-trioxo-tetrahydropyrimidin-5(6H)-ylidene)methyl)phenoxy)methyl)benzoic acid] the figure was 78%.
Consider `COC(=O)c1cccc(COc2cccc(C=C3C(=O)NC(=O)NC3=O)c2)c1` [Formula 9, Methyl 3-((3-((2,4,6-trioxo-tetrahydropyrimidin-5(2H)-ylidene)methyl)phenoxy)methyl) benzoate], for which, in assay [1], the Monocyte adhesion result is recorded as “unaffected” and the “Level of Transmigration Blockage (%)” value is on record as 98%. Besides, in assay [1] (Homo sapiens, HUVEC), the inhibition at 30 µM was greater than 90%.
As to `O=C1NC(=O)C(=Cc2c3ccccc3cc3ccccc23)C(=O)N1` [Formula 10, 5-(anthracen-9-ylmethylene)pyrimidine-2,4,6(1H,3H,5H)-trione], in assay [1], the Monocyte adhesion entry is given as “unaffected” and the “Level of Transmigration Blockage (%)” value is 92%. Besides, in assay [1] (Homo sapiens, HUVEC), the inhibition at 30 µM was greater than 90%. Moreover, in assay [1] (Homo sapiens, HUVEC, flow 0.05 Pa, n=3), the pIC50 is 6.52. Besides, the Emax in assay [1] (Homo sapiens, HUVEC, monocyte transmigration inhibition, read-out: maximal efficacy) was determined as 40%. For the same compound, the “concentration below which not active on monocyte transmigration” value in assay [1] (dose response, 100 μM to 3 nM) is “below 30 nM”. The monocyte transmigration result in assay [1] (dose response, concentrations higher than 30 nM) is listed as “partial effect”. In assay [1] (dose response, high concentrations (100 μM)), the monocyte transmigration entry is “Total blocking”. Besides, in assay [1] (monocyte transmigration, read at 10, 15, 20 and 25 minutes), the “time of the maximal effect” value stood at 25 min.
In the case of “Tysabri®: an antibody against alpha 4 integrin, used as a positive control [reference compound]”, the “number of transmigrated B cells” value with B cells is listed as “no net effect”.

By inhibition is commonly meant how much of the control response was suppressed. For orientation: pIC50 means the IC50 on a negative log10 scale, so that one unit is a factor of ten. The low end stands for a high IC50, the high end for a low IC50.
